Data as given in ChEMBL document CHEMBL3507680, “University of Dundee, Gates Library screen for HepG2 cell viability”.

Assay: Human HepG2 cell viability assay in 384 well format
Assay type: toxicity, cell-based
Design: dose 125 nL, time 70.5 hour; cytotoxicity at 70.5 h: concentration not given beside the values
Conditions: HepG2 cells, read-out: Inhibition

Compound | cytotoxicity at 70.5 h
O=C(c1sccc1C1CC1)N1CCN(c2cnccn2)CC1 | -11.8%
CN(Cc1cccc(C#N)c1)c1ncc(C(N)=O)cc1Cl | -8.78%
CCN1CCN(C(C)CNC(=O)Nc2nc3ccccc3s2)CC1 (stereo not given) | -7.3%
O=C(c1sccc1C1CC1)N1CCCN(c2cccnn2)CC1 | -7.16%
COC(=O)c1sc2cccc(F)c2c1CNC(=O)C1CCOC1 (stereo not given) | -2.33%
Cc1csc(C2(NC(=O)CCNC(=O)C(C)(C)C)CCCC2)n1 | 0.031%
COC(=O)C1CN(Cc2nc(C(C)(C)C)cs2)C[C@@H](C)O1 (stereo not given in full) | -7.31%
CC(=O)Nc1ccc(CNc2cccc(CS(C)(=O)=O)c2)cc1 | -3.91%
CCOc1cncc(N2CCN(c3ccccc3O)CC2)n1 | 13.6%
O=C(c1ccc(-n2cccn2)c(F)c1)N1CCCN2CCCC2C1 (stereo not given) | -8.24%
CC(C)(C)c1cnc(CN2CCC(CO)CC2)o1 | -3.87%
CCOCC(=O)NC1(c2nc(C)cs2)CCCC1 | -2.89%
CCc1nc2c(s1)C(N(C)C(C)=O)CCC2 (stereo not given) | -7.14%
COc1ccc(CCN(C)CCS(=O)(=O)c2ccc(Cl)cc2)cc1OC | -13.8%
CCNc1ccnc(CN2CCCC2C(=O)Nc2nccs2)c1 (stereo not given) | 8.54%
O=C(c1ccc(F)c(Br)c1)N1CCCN2CCCC2C1 (stereo not given) | -8.34%
COc1c(C2CCCN2CC(=O)N2CCCCC2)c(C)nn1C (stereo not given) | 4.89%
CC(C)N(C)C(=O)COc1ccc(-c2noc(C3CCCO3)n2)cc1 (stereo not given) | 5.4%
CC(C)NC(=O)c1cccc(NC(=O)CCCc2nc(C(C)C)no2)c1 | 5.5%
CCN(CC(=O)Nc1cc(Cl)ccc1C)C(=O)c1ccc(=O)[nH]n1 | -2.64%
CC(Nc1cccc2c1OCCO2)C(=O)NC(N)=O (stereo not given) | -2.31%
O=C(Nc1ccc2c(ccn2CCN2CCOCC2)c1)c1ccccn1 | -3.62%
CCc1nc(C(=O)N(CC)CC(=O)N(C)C)nn1-c1ccccc1Cl | -2.5%
COC(=O)CNC(=O)c1scnc1C | -1.16%

Compound | cytotoxicity at 70.5 h
O=C(COC1CCCC1)NCCc1nc(-c2ccccn2)cs1 | -3.01%
O=C(NCc1ccc(N2CC=CC2)cc1)Nc1nnc(C2CC2)s1 | 22.1%
CC(C)(C)S(=O)(=O)CCNC(=O)c1ccc2ccccc2c1 | 0.161%
COC(=O)N1CCC(Nc2ccc(Cl)c(C#N)n2)CC1 | -0.879%
Cc1nn(C)c(Cl)c1C1CCCN1CC(=O)NC1CCCCC1 (stereo not given) | 5.03%
Cc1nn(C)c(C)c1C(=O)NCc1cc(N(C)C)nc2ccccc12 | 27.3%
Cn1cc(CC2CC(=O)N(Cc3ccccc3OC(F)F)C2=O)cn1 (stereo not given) | -0.223%
CN(C(=O)NCC1(CN2CCOCC2)CCCCC1)C1CC1 | -4.71%
CCOC(=O)CNC(=O)c1scnc1C | -8.4%
Cc1n[nH]c(C2CN(C(=O)COCC(F)(F)F)CCO2)n1 (stereo not given) | -5.9%
CC(CC(=O)N1CCCN(Cc2cscn2)CC1)n1cccc1 (stereo not given) | -6.05%
Cc1c(C(=O)NC2=NCCS2)cnn1-c1ccc(Br)cc1 | -15%
O=C(c1ccoc1)N(Cc1cccnc1)C1CC1 | -21.3%
CC(=O)Nc1nc(CS(=O)(=O)CCCc2ccccc2)cs1 | -9.04%
O=C(c1cccnc1)N1CCSCC1 | -16.5%
O=C(NCC(O)COc1ccccc1)Nc1nncs1 (stereo not given) | 21.4%
COc1ccc(OC(F)F)c(NCC(=O)NCC(=O)N2CCCC2)c1 | -7.93%
COc1ccc(Cl)c(NCC(=O)NCC(=O)N2CCCC2)c1 | -18.4%
COc1ccc(NCC(=O)NCC(=O)N2CCCC2)c(C(F)(F)F)c1 | -2.2%
O=C(c1ccoc1)N(Cc1ccncc1)C1CC1 | -14%
COc1ccc(CNC(=O)CCc2c(C)noc2C)cc1F | -12.8%
N#Cc1ccc(C(=O)N(Cc2ccncc2)C2CC2)cc1 | -6.43%
O=C(NCC1CCC1)c1cccc(CN2CCS(=O)(=O)CC2)c1 | -16.2%
NC(=O)C1CCN(CCc2ccc(NCc3ccsc3)cc2)CC1 | -11.9%

Compound | cytotoxicity at 70.5 h
CC(C)CC(CCO)CNC(=O)N1CCCC1(C)C (stereo not given) | 2.81%
CCN(C(C)=O)C(c1cccnc1)c1cc(C)cc(C)c1 (stereo not given) | 6.16%
Cn1cnnc1CCNC(=O)c1ccccc1OC1CCC1 | 7.31%
CC(C)CC(CCO)CNC(=O)N1CCC1(C)C (stereo not given) | -1.15%
CCN(C(c1cccnc1)c1cc(C)cc(C)c1)S(C)(=O)=O (stereo not given) | -9.96%
CC(c1cccc(O)c1)N(C)S(N)(=O)=O (stereo not given) | 37%
NC(=O)C1CCN(C(=O)Cc2ccc(Cl)c(Cl)c2)CC1 | -2.27%
Cc1ccsc1C(=O)NC(C)c1ccc2c(c1)CCC(=O)N2 (stereo not given) | -1.83%
Cn1cc(NC(=O)NCc2ccoc2)ccc1=O | -3.69%
CN(Cc1ccsc1)C(=O)Nc1cccc(N2CCOC2=O)c1 | 26.8%
Cn1cc(NC(=O)CCc2ccsc2)ccc1=O | -5.97%
Cc1ncc(CN(C)C(=O)Nc2cccc(CN3CCOC3=O)c2)s1 | -3.49%
Cc1ccc(CN(C(=O)C(C)S(C)(=O)=O)C2CC2)cc1C (stereo not given) | -4.96%
CN(C)c1cccc(C(=O)Nc2cn(C)c(=O)n(C)c2=O)c1 | -3.1%
Cn1cc(S(=O)(=O)N2CCCC2Cn2ccnc2)cn1 (stereo not given) | -3.56%
Cc1nn(C(C)C)c(C)c1S(=O)(=O)Nc1ccc(C(=O)O)c(Cl)c1 | -5.52%
Cc1cc2cc(CNC3CCN(CC4CCOC4)CC3)oc2cc1C (stereo not given) | 10.8%
CCn1cc(S(=O)(=O)NC(=O)CCc2c[nH]c3ccccc23)cn1 | -0.706%
COc1ccc(CNC(=O)NCCc2nc(C)c(C)s2)cn1 | -3.08%
Cn1cc(S(=O)(=O)NC(CO)Cc2c[nH]c3ccccc23)cn1 (stereo not given) | -7.44%
Cc1cc(C)cc(C(=O)NCc2ncnn2C)c1 | -5.75%
CC(NC(=O)c1sccc1C1CC1)c1ccc2c(c1)CC(=O)N2 (stereo not given) | -1.98%
Cc1cc2cc(CNC3CCN(S(C)(=O)=O)CC3)oc2cc1C | -1.78%
CCN(Cc1ccoc1)C(=O)NC1CCN(CC2CC2)C1 (stereo not given) | -5.67%

Compound | cytotoxicity at 70.5 h
COCCCn1ccc(NCc2cnc(C(C)(C)C)s2)n1 | 27.4%
Cc1nc(CCNC(Cc2ccncc2)C(F)(F)F)cs1 (stereo not given) | -3.19%
Cc1cnc(CCNC(Cc2ccncc2)C(F)(F)F)s1 (stereo not given) | -7.12%
CCOC(=O)C(C)Nc1cccc(COCc2ccco2)c1 (stereo not given) | -1.34%
CC(C)(C)c1nc(CN(CCC2CCCCC2)CC(N)=O)no1 | 22.6%
O=S(=O)(Cc1ccccc1F)Cc1nnnn1C1CC1 | -14.6%
Cc1ccc(NS(=O)(=O)c2cnn(Cc3ccccc3)c2)c(C(=O)O)c1 | -21.3%
CCNC(=O)CCC(=O)N1CCC(Oc2cc(C)ccc2C)CC1 | -19.2%
O=S(=O)(Cc1c(F)cccc1Cl)Cc1nnnn1C1CC1 | -13.2%
CC(CC(=O)NCCS(N)(=O)=O)C1CCCCC1 (stereo not given) | -9.82%
[O-][S+](Cc1c(F)cccc1Cl)Cc1nnnn1C1CC1 (stereo not given) | -14.6%
CCSc1ccc(C(=O)N2CCCC2C(=O)N2CCOCC2)cn1 (stereo not given) | -12.5%
Cn1cc(C(O)CNC(=O)c2ccc(F)cc2Cl)cn1 (stereo not given) | -13%
O=C(NCCO)Nc1c(F)cc(F)cc1-c1ccccc1 | -10.7%
Cc1nc(NC(=O)c2nn(-c3ccc(F)cc3C)cc2O)n[nH]1 | -14.6%
CN1CCCN(C(=O)c2cnsn2)c2cc(Cl)ccc21 | -13.8%
O=C(CNC(=O)Nc1c(F)cc(F)cc1-c1ccccc1)NC1CC1 | -10.3%
CN1CCN(C(=O)c2cnsn2)c2cc(F)ccc21 | 1.4%
COc1ccc(CN2CCN(CCn3ccnc3)CC2)cc1F | -13.3%
CN(CC1(O)CCCC1)C(=O)c1cccc(Nc2cnccn2)c1 | -19.5%
CN1CCCN(C(=O)c2cnsn2)c2cc(F)ccc21 | 25.1%
CN1CCN(c2ccc(F)cc2C(N)=O)CC1 | -12.1%
Cc1ccc(C(=O)NCC(O)c2cnn(C)c2)c(Br)c1 (stereo not given) | -14.7%
Cc1ccc(F)c2c1N(C(=O)c1cn(CC(=O)N(C)C)nn1)CCC2 | -10.6%

Compound | cytotoxicity at 70.5 h
CCOc1cncc(N2CCCC2c2nnc3n2CCCCC3)n1 (stereo not given) | -3.47%
COc1ccc(-n2ccc(C(=O)N(CCN(C)C)C(C)C)n2)cc1 | -10.3%
Cc1cc(N(C)C)nc(N2CCN(C(C)c3nc(C)no3)CC2)n1 (stereo not given) | 22.7%
COc1ccccc1C1(CNc2ccc(C(=O)N(C)C)cn2)CC1 | 25.8%
CCn1ncc2c1CCCC2NCc1csc(COC)n1 (stereo not given) | 21.6%
CCOc1ccc(N2CCC(C(O)c3ccccc3)CC2)nn1 (stereo not given) | 51.9%
CCN(CC(=O)NC(C)C)C(=O)C(C)(C)c1ccc2c(c1)OCCO2 | -8.1%
COc1cc(C)nc(N2CCN(C(C)c3nc(C)no3)CC2)n1 (stereo not given) | -6.32%
O=C1OCCN1CCS(=O)(=O)c1cccc(Br)c1 | -2.02%
O=S(=O)(NCCN1CC=CC1)c1ccc(Cl)cc1 | -6.79%
O=C1OCCN1CCS(=O)(=O)c1cccc(Cl)c1 | -5.19%
CS(=O)(=O)CCOCCNc1ccc(C#N)cc1F | -7.64%
CCOc1cccc(NC(=O)c2cscn2)n1 | -9.11%
CCOc1cccc(COC(=O)c2cscn2)n1 | -4.87%
COC(=O)c1ccc(N2CCC(c3ccccc3)CC2)nn1 | -8.39%
O=S(=O)(CCCNCCn1cccn1)c1ccccc1 | -14.5%
COCC(C)NC(=O)CN1CCC(C)CC1 (stereo not given) | -20.8%
CN(Cc1cccnc1)C(CO)c1cccc(Br)c1 (stereo not given) | -7.61%
CCS(=O)(=O)NC(CCSC)C(=O)Nc1ccc(F)cc1 (stereo not given) | -85.2%
CNS(=O)(=O)c1ccc(CNC(=O)N(C)C(C)COC)cc1 (stereo not given) | -97.7%
Cc1cc(N2CCc3cncnc3C2)n2nc(C(F)(F)F)nc2n1 | -104%
O=C(CN(CC(O)c1ccc(F)cc1)C1CC1)NC1CCOCC1 (stereo not given) | -91.7%
CNC(=O)c1ccccc1NCc1ncnn1C | -96.8%
CNC(=O)CNCc1c[nH]nc1-c1cc2ccccc2o1 | -1.2%
